Results reported in patent US7514438B2, “Melanin concentrating hormone receptor antagonist” (Amgen, Inc., priority 2003, dated 2009).
Like-named read-outs stand apart in the source and are kept apart here.

Legend:
[1] = molecular target: T1, human MCH 1 receptor (hMCH1R) (Homo sapiens, UniProt Q99705); test: 125I-MCH ligand binding assay, hMCH; details: HEK 293 membranes, 0.2 nM 125I native-MCH, read-out: IC50 in the hMCH binding assay
T1 construct: expressed in transfected cells; host or cells: HEK 293 (membranes)
T1 sequence (Q99705 whole entry): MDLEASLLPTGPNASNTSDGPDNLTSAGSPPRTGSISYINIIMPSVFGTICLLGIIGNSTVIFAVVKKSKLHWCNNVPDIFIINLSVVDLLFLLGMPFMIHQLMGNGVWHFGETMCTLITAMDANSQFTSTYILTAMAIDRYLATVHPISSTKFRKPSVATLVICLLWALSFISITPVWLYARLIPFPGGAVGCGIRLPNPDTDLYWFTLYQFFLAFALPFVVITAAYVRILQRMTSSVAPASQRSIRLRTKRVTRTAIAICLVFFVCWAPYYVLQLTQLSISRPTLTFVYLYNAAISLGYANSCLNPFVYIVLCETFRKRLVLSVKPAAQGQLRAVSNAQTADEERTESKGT
Method: (§1) Human embryonic kidney cells (293 total) expressing either human, rat, or mouse MCH receptor were harvested from 150 mm culture dishes using PBS. Spinning at 1500 rpm for 2 minutes initially pelleted cells. The resulting pellet was then homogenized in 15 mL ice cold sucrose buffer (25 mM HEPES, 0.3 M sucrose, pH 7.4) with a motorized, glass fitted, Teflon® homogenizer. The homogenate was centrifuged at 48,000×g at 4° C. for 10 minutes, resuspended in 15 mL assay buffer (25 mM HEPES, 10 mM mgCl2, 0.2% BSA, 0.1 mg/mL STI, 0.1 mg/mL Pefabloc®, 1 μM Phosphoramidon, pH 7.4) with a Tissue-Tearor® (Biospec Products) and centrifuged again at 48,000×g for 10 minutes. The pellet was homogenized for a third time in 15 mL assay buffer using the Tissue-Tearor® and again centrifuged at 48,000×g for 10 minutes. The resulting pellet was resuspended in assay buffer at a wet weight concentration of 10-20 mg/mL.
(§2) Binding assays were determined as described below using mouse, rat or human MCH 1 receptors (mMCH1R, rMCH1R, and hMCH1R, respectively) expressed in HEK 293; IC50 values were calculated.
(§3) Binding assays were performed in 96-well U-bottom plates. Membranes (100 μg tissue) were incubated at 30° C. for 90 minutes in assay buffer with various peptides in the presence of 0.2 nM ^125I native-MCH (Perkin-Elmer Life Sciences, Boston, Mass.) in 100 μL total volume. Non-specific binding was assessed in the presence of 1 μM cold native-MCH. The reaction was terminated by rapid filtration through Unfilter-96 GF/C glass fiber filter plates (FilterMate® 196 Harvester, Packard Instrument Co., Meriden, Conn.) pre-soaked in PBS/0.5% BSA, followed by three washes with 300 μL ice-cold water. Bound radioactivity was determined using a TopCount® microplate scintillation and luminescence counter (Packard Instrument Co., Meriden, Conn.). Nonlinear regression analyses of drug concentration curves were performed using GraphPad Prism® (GraphPad Software, Inc., San Diego, Calif.).

[2] = molecular target: T2, rat MCH 1 receptor (rMCH1R) (Rattus norvegicus, UniProt P97639); test: 125I-MCH ligand binding assay, rMCH; details: HEK 293 membranes, 0.2 nM 125I native-MCH, read-out: IC50 in the rMCH binding assay
T2 construct: expressed in transfected cells; host or cells: HEK 293 (membranes)
T2 sequence (P97639 whole entry): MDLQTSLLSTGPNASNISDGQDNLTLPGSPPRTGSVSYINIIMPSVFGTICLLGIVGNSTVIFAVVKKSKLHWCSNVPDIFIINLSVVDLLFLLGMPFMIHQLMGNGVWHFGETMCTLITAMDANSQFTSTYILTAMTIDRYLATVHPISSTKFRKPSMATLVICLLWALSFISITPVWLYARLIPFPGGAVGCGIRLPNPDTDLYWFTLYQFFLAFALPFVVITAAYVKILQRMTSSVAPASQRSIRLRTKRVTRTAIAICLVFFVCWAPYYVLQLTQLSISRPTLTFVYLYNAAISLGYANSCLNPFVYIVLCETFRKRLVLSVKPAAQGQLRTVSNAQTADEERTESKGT
Method: as §1, §2, §3

IC50 ([1]; 100 μM or less list)	IC50 ([2]; 100 μM or less list)	IC50 ([1]; 100 nM or less list)	IC50 ([2]; 100 nM or less list)	Compound
≤ 100 µM	≤ 100 µM			Cc1cccc(C)c1-n1nnnc1[C@H](c1cccnc1)N1CCN(C/C=C/c2ccccc2)CC1 (racemic) [Compound 74, 1-{[1-(2,6-dimethylphenyl)-1H-tetrazol-5-yl]pyridin-3-ylmethyl}-4-(3-phenylallyl)piperazine]
≤ 100 µM	≤ 100 µM			Cc1cccc(C)c1-n1nnnc1[C@H](c1ccc(/C=C/c2ccccc2)cc1)N1CCN(C/C=C/c2ccccc2)CC1 (racemic) [Compound 52, 1-[[1-(2,6-dimethylphenyl)-1H-tetrazol-5-yl]-(4-styrylphenyl)methyl]-4-(3-phenylallyl)piperazirie]
≤ 100 µM	≤ 100 µM	≤ 0.1 µM	≤ 0.1 µM	Cc1cccc(C)c1-n1nnnc1[C@H](c1cccc(C(F)(F)F)c1)N1CCN(C/C=C/c2ccccc2)CC1 (stereo in doubt) [Compound 142, 1-[[1-(2,6-dimethylphenyl)-1H-tetrazol-5-yl]-(3-trifluoromethylphenyl)methyl]-4-(3-phenylallyl)piperazine]
≤ 100 µM				Cc1cccc(C)c1-n1nnnc1[C@H](COCCc1ccccc1)N1CCN(C/C=C/c2ccccc2)CC1 (racemic) [Compound 85, 1-{1-[1-(2,6-dimethylphenyl)-1H-tetrazol-5-yl]-2-phenethyloxyethyl}-4-(3-phenylallyl)piperazine]
≤ 100 µM	≤ 100 µM			Cc1cccc(C)c1-n1nnnc1[C@H](COCc1ccccc1)N1CCN(C/C=C/c2ccccc2)CC1 (racemic) [Compound 69, 1-{2-benzyloxy-1-[1-(2,6-dimethylphenyl)-1H-tetrazol-5-yl]ethyl}-4-(3-phenylallyl)piperazine]
≤ 100 µM				COc1ccccc1[C@@H](c1nnnn1-c1c(C)cccc1C)N1CCN(C/C=C/c2ccccc2)CC1 (racemic) [Compound 67, 1-[[1-(2,6-dimethylphenyl)-1H-tetrazol-5-yl]-(2-methoxyphenyl)methyl]-4-(3-phenylallyl)piperazine]
≤ 100 µM	≤ 100 µM			Cc1cccc([C@@H](c2nnnn2-c2c(C)cccc2C)N2CCN(C/C=C/c3ccccc3)CC2)n1 (racemic) [Compound 71, 1-[[1-(2,6-dimethylphenyl)-1H-tetrazol-5-yl]-(6-methylpyridin-2-yl)methyl]-4-(3-phenylallyl)piperazine]
≤ 100 µM	≤ 100 µM			Cc1cccc(C)c1-n1nnnc1[C@H](c1cccc2ccccc12)N1CCN(C/C=C/c2ccccc2)CC1 (racemic) [Compound 46, 1-{[1-(2,6-dimethyiphenyl)-1H-tetrazol-5-yl]naphthalen-1-ylmethyl}-4-(3-phenylallyl)piperazine]
≤ 100 µM				Cc1cccc(C)c1-n1nnnc1C1(N2CCN(C/C=C/c3ccccc3)CC2)CCN(Cc2ccccc2)CC1 [Compound 91, 1-{1-benzyl-4-[1-(2,6-dimethylphenyl)-1H-tetrazol-5-yl]piperidin-4-yl}-4-(3-phenylallyl)piperazine]

Further lines, the molecule ahead of its results:

Compound	IC50 ([1]; 100 μM or less list)	IC50 ([2]; 100 μM or less list)	IC50 ([1]; 100 nM or less list)	IC50 ([2]; 100 nM or less list)
O=C1CCCN1CCCn1nnnc1[C@H](c1ccccc1)N1CCN(C/C=C/c2ccccc2)CC1 (racemic) [Compound 36, 1-[3-(5-{phenyl-[4-(3-phenylallyl)piperazin-1-yl]methyl}tetrazol-1-yl)propyl]pyrrolidin-2-one]	≤ 100 µM	≤ 100 µM		
Clc1ccc(CCn2nnnc2[C@H](c2ccccc2)N2CCN(C/C=C/c3ccccc3)CC2)cc1 (racemic) [Compound 39, 1-({1-[2-(4-chlorophenyl)ethyl]-1H-tetrazol-5-yl}phenylmethyl)-4-(3-phenylallyl)piperazine]	≤ 100 µM	≤ 100 µM		
COC(=O)C(Cc1c[nH]c2ccccc12)n1nnnc1[C@H](c1ccccc1)N1CCN(C/C=C/c2ccccc2)CC1 (stereo in doubt) [Compound 31, 3-(1H-indol-3-yl)-2-(5-{phenyl-[4-(3-phenylallyl)piperazin-1-yl]methyl}tetrazol-1-yl)propionic acid methyl ester]	≤ 100 µM	≤ 100 µM		
CN1CCCC1CCn1nnnc1[C@H](c1ccccc1)N1CCN(C/C=C/c2ccccc2)CC1 (stereo in doubt) [Compound 37, 1-({1-[2-(1-methyl-pyrrolidin-2-yl)ethyl]-1H-tetrazol-5-yl}phenylmethyl)-4-(3-phenylallyl)piperazine]	≤ 100 µM	≤ 100 µM		
CCCCn1nnnc1[C@H](c1ccccc1)N1CCN(C/C=C/c2ccccc2)CC1 (racemic) [Compound 17, 1-[(1-butyl-1H-tetrazol-5-yl)phenylmethyl]-4-(3-phenylallyl)piperazine]	≤ 100 µM			
Cc1cccc(C)c1-n1nnnc1[C@H](c1ccc(C(F)(F)F)cc1)N1CCN(C/C=C/c2ccccc2)CC1 (racemic) [Compound 63, 1-[[1-(2,6-dimethylphenyl)-1H-tetrazol-5-yl]-(4-trifluoromethylphenyl)methyl]-4-(3-phenylallyl)piperazine]	≤ 100 µM	≤ 100 µM		
CCOC(=O)Cn1nnnc1[C@H](c1ccccc1)N1CCN(C/C=C/c2ccccc2)CC1 (racemic) [Compound 21]	≤ 100 µM	≤ 100 µM		
C(=C\c1ccccc1)/CN1CCN([C@@H](c2ccccc2)c2nnnn2CCc2ccccc2)CC1 (racemic) [Compound 35, 1-[(1-phenethyl-1H-tetrazol-5-yl)phenylmethyl]-4-(3-phenylallyl) piperazine]	≤ 100 µM	≤ 100 µM		
COC(=O)Cn1nnnc1[C@H](c1ccccc1)N1CCN(C/C=C/c2ccccc2)CC1 (racemic) [Compound 16, (5-{phenyl-[4-(3-phenylallyl)piperazin-1-yl]methyl}tetrazol-1-yl)acetic acid methyl ester]	≤ 100 µM			
Clc1ccc(Cn2nnnc2[C@H](c2ccccc2)N2CCN(C/C=C/c3ccccc3)CC2)cc1Cl (racemic) [Compound 30, 1-{[1-(3,4-dichlorobenzyl)-1H-tetrazol-5-yl]phenylmethyl}-4-(3-phenylallyl)piperazine]	≤ 100 µM	≤ 100 µM		
CC(C)(C)CC(C)(C)n1nnnc1[C@H](c1ccccc1)N1CCN(C/C=C/c2ccccc2)CC1 (racemic) [Compound 22, 1-(3-phenylallyl)-4-{phenyl-[1-(1,1,3,3-tetramethylbutyl)-1H-tetrazol-5-yl]methyl}piperazine]	≤ 100 µM	≤ 100 µM		
CC(C)n1nnnc1[C@H](c1ccccc1)N1CCN(C/C=C/c2ccccc2)CC1 (racemic) [Compound 19, 1-[(1-isopropyl-1H-tetrazol-5-yl)phenylmethyl]-4-(3-phenylallyl)piperazine]	≤ 100 µM	≤ 100 µM		
Cc1cccc(C)c1-n1nnnc1[C@H](c1ccc(-c2cccc(C(F)(F)F)c2)o1)N1CCN(C/C=C/c2ccccc2)CC1 (racemic) [Compound 68, 1-{[1-(2,6-dimethylphenyl)-1H-tetrazol-5-yl]-[5-(3-trifluoromethylphenyl)furan-2-yl]methyl}-4-(3-phenylallyl)piperazine]	≤ 100 µM	≤ 100 µM		
Cc1ccc(Oc2cccc([C@@H](c3nnnn3-c3c(C)cccc3C)N3CCN(C/C=C/c4ccccc4)CC3)c2)cc1 (racemic) [Compound 73, 1-[[1-(2,6-dimethylphenyl)-1H-tetrazol-5-yl]-(3-p-tolyloxyphenyl)methyl]-4-(3-phenylallyl)piperazine]	≤ 100 µM	≤ 100 µM		
C(=C\c1ccccc1)/CN1CCN([C@@H](c2ccccc2)c2nnnn2Cc2ccccc2)CC1 (racemic) [Compound 15, 1-[(1-benzyl-1H-tetrazol-5-yl)phenylmethyl]-4-(3-phenylallyl)piperazine]	≤ 100 µM	≤ 100 µM		
C(=C\c1ccccc1)/CN1CCN([C@@H](c2ccccc2)c2nnnn2CCc2c[nH]c3ccccc23)CC1 (racemic) [Compound 29, 3-[2-(5-{phenyl-[4-(3-phenylallyl)piperazin-1-yl]methyl}tetrazol-1-yl)ethyl]-1H-indole]	≤ 100 µM	≤ 100 µM		
C(=C\c1ccccc1)/CN1CCN([C@@H](c2ccccc2)c2nnnn2CCCN2CCOCC2)CC1 (racemic) [Compound 42]	≤ 100 µM			
